Source: US10125134B2 (Mirati Therapeutics, Inc., priority 2016, dated 2018)
Where two headings read alike, the source gives them in different places.

Experiments:
KRas G12C = KRas G12C (Homo sapiens, UniProt P01116, C118S/C51S/C80L/G12C); assay: KRas G12C Modification Assay (LCMS detection of covalent adduct); assay type: binding
Procedure, shortened: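 Cys-light KRas G12C mutant protein incubated with compound in K-Ras assay buffer, reactions quenched at set time points with 25 mM acetic acid and analysed by intact-protein LC/MS on a C-3 column. Deconvoluted mass heights expressed as percent of control (POC) relative to compound-free protein.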

[1] = tested on: NCI-H358 cells (express KRas G12C), Phospho-ERK; assay: Cellular inhibition of KRas G12C: Phospho-ERK in NCI-H358 cells; assay type: cell-based; settings: Homo sapiens, pERK(Thr202/Tyr204) normalized with GAPDH, NCI-H358 cells, 3 hours, read-out: IC50
Procedure, shortened: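 IC50 derived by 4-parameter fit of GAPDH-normalized pERK(Thr202/Tyr204) signal, as percent of DMSO control. Signal came from in-cell immunodetection with infrared secondaries after 3 h compound exposure of KRas G12C NCI-H358 cells at 0.5% DMSO.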

[2] = normalized percent of control, tested at 5 μM concentration for 3 hours

| Compound | POC (KRas G12C; [2]) | IC50 ([1]; NCI-H358, 3 h) | IC50 [1] | POC (KRas G12C; 5 µM) |
| --- | --- | --- | --- | --- |
| C=CC(=O)N1CCN(c2nc(OCC3CCN(CC(=O)N(C)C)C3)nc3c2CCN(c2cc(O)cc4ccccc24)C3)CC1 (stereo not shown) [Example 140, 2-[3-[[7-(3-hydroxy-1-naphthyl)-4-(4-prop-2-enoylpiperazin-1-yl)-6,8-dihydro-5H-pyrido[3,4-d]pyrimidin-2-yl]oxymethyl]pyrrolidin-1-yl]-N,N-dimethyl-acetamide] | C (“C”>50% POC) | > 1000 nM |  |  |
| C=CC(=O)N1CCN(c2nc(OCC(O)CO)nc3c2CCN(c2cc(O)cc4ccccc24)C3)CC1 (stereo not shown) [Example 143, 1-[4-[2-(2,3-dihydroxypropoxy)-7-(3-hydroxy-1-naphthyl)-6,8-dihydro-5H-pyrido[3,4-d]pyrimidin-4-yl]piperazin-1-yl]prop-2-en-1-one] | C (“C”>50% POC) | > 1000 nM |  |  |
| C=CC(=O)N1CCN(c2nc(OC[C@@H]3CCCN3C(C)C)nc3c2CCN(c2cc(O)cc4ccccc24)C3)CC1 [Example 145, 1-[4-[7-(3-hydroxy-1-naphthyl)-2-[[(2S)-1-isopropylpyrrolidin-2-yl]methoxy]-6,8-dihydro-5H-pyrido[3,4-d]pyrimidin-4-yl]piperazin-1-yl]prop-2-en-1-one] | C (“C”>50% POC) | 0.1 to 1000 nM |  |  |
| C=CC(=O)N1CCN(c2nc(OC[C@@H]3CCCN3C)nc3c2CCN(c2cccc4ccccc24)C3)CC1CC#N (stereo partly drawn) [Example 147, 2-[4-[2-[[(2S)-1-methylpyrrolidin-2-yl]methoxy]-7-(1-naphthyl)-6,8-dihydro-5H-pyrido[3,4-d]pyrimidin-4-yl]-1-prop-2-enoyl-piperazin-2-yl]acetonitrile] | C (“C”>50% POC) |  | 0.1 to 1000 nM |  |
| C=CC(=O)N1CCN(c2nc(OC[C@@H]3CCCN3C)nc3c2CCN(c2c(C)ccc4[nH]ncc24)C3)CC1CC#N (stereo partly drawn) [Example 148, 2-[4-[7-(5-methyl-1H-indazol-4-yl)-2-[[(2S)-1-methylpyrrolidin-2-yl]methoxy]-6,8-dihydro-5H-pyrido[3,4-d]pyrimidin-4-yl]-1-prop-2-enoyl-piperazin-2-yl]acetonitrile] | C (“C”>50% POC) |  | 0.1 to 1000 nM |  |
| C=CC(=O)N1CCN(c2nc(OC[C@@H]3CCCN3C)nc3c2CCN(c2c(C(F)(F)F)ccc4[nH]ncc24)C3)CC1CC#N (stereo partly drawn) [Example 149, 2-[4-[2-[[(2S)-1-methylpyrrolidin-2-yl]methoxy]-7-[5-(trifluoromethyl)-1H-indazol-4-yl]-6,8-dihydro-5H-pyrido[3,4-d]pyrimidin-4-yl]-1-prop-2-enoyl-piperazin-2-yl]acetonitrile] | B (“B”>25% POC−≤50% POC) |  | 0.1 to 1000 nM |  |
| C=CC(=O)N1CCN(c2nc(OC[C@@H]3CCCN3C)nc3c2CCN(c2c(C)ccc4[nH]ncc24)C3)CC1 [Example 155, (S)-1-(4-(7-(5-methyl-1H-indazol-4-yl)-2-((1-methylpyrrolidin-2-yl)methoxy)-5,6,7,8-tetrahydropyrido[3,4-d]pyrimidin-4-yl)piperazin-1-yl)prop-2-en-1-one] |  |  | 0.1 to 1000 nM | C (key: “A”≤25% POC; “B”>25% POC−≤50% POC; “C”>50% POC) |
| C=CC(=O)N1CCN(c2nc(OC[C@@H]3CCCN3C)nc3c2CCN(c2c(C(F)(F)F)ccc4[nH]ncc24)C3)CC1 [Example 156, (S)-1-(4-(2-((1-methylpyrrolidin-2-yl)methoxy)-7-(5-(trifluoromethyl)-1H-indazol-4-yl)-5,6,7,8-tetrahydropyrido[3,4-d]pyrimidin-4-yl)piperazin-1-yl)prop-2-en-1-one] | C (“C”>50% POC) | 0.1 to 1000 nM |  |  |

More lines, main results first:

| POC (KRas G12C; [2]) | Compound | IC50 ([1]; NCI-H358, 3 h) | IC50 [1] | POC (KRas G12C; 5 µM) |
| --- | --- | --- | --- | --- |
| C (“C”>50% POC) | C=CC(=O)N1CCN(c2nc(OCC3CCN(CCO)C3)nc3c2CCN(c2cc(O)cc4ccccc24)C3)CC1 (stereo not shown) [Example 141, 1-[4-[2-[[1-(2-hydroxyethyl)pyrrolidin-3-yl]methoxy]-7-(3-hydroxy-1-naphthyl)-6,8-dihydro-5H-pyrido[3,4-d]pyrimidin-4-yl]piperazin-1-yl]prop-2-en-1-one] | > 1000 nM |  |  |
| C (“C”>50% POC) | C=CC(=O)N1CCN(c2nc(OCCO)nc3c2CCN(c2cc(O)cc4ccccc24)C3)CC1 [Example 142, 1-[4-[2-(2-hydroxyethoxy)-7-(3-hydroxy-1-naphthyl)-6,8-dihydro-5H-pyrido[3,4-d]pyrimidin-4-yl]piperazin-1-yl]prop-2-en-1-one] | > 1000 nM |  |  |
| C (“C”>50% POC) | C=CC(=O)N1CCN(c2nc(OC[C@@H]3CCCN3CCOC)nc3c2CCN(c2cc(O)cc4ccccc24)C3)CC1 [Example 144, (5)-1-(4-(7-(3-hydroxynaphthalen-1-yl)-2-((1-(2-methoxyethyl)pyrrolidin-2-yl)methoxy)-5,6,7,8-tetrahydropyrido[3,4-d]pyrimidin-4-yl)piperazin-1-yl)prop-2-en-1-one] | 0.1 to 1000 nM |  |  |
| B (“B”>25% POC−≤50% POC) | C=CC(=O)N1CCN(c2nc(OC[C@@H]3CCNC3)nc3c2CCN(c2cc(O)cc4ccccc24)C3)CC1 [Example 146, 1-[4-[7-(3-hydroxy-1-naphthyl)-2-[[(3R)-pyrrolidin-3-yl]methoxy]-6,8-dihydro-5H-pyrido[3,4-d]pyrimidin-4-yl]piperazin-1-yl]prop-2-en-1-one] | > 1000 nM |  |  |
| C (“C”>50% POC) | C=CC(=O)N1CCN(c2nc(O[C@H](C)CN(C)C)nc3c2CCN(c2cc(O)cc4ccccc24)C3)CC1CC#N (stereo partly drawn) [Example 150, 2-(1-acryloyl-4-(2-(((R)-1-(dimethylamino)propan-2-yl)oxy)-7-(3-hydroxynaphthalen-1-yl)-5,6,7,8-tetrahydropyrido[3,4-d]pyrimidin-4-yl)piperazin-2-yl)acetonitrile] | 0.1 to 1000 nM |  |  |
| B (“B”>25% POC−≤50% POC) | C=CC(=O)N1CCN(c2nc(O[C@H](C)CN(C)C)nc3c2CCN(c2cccc4ccccc24)C3)CC1CC#N (stereo partly drawn) [Example 151, 2-(1-acryloyl-4-(2-(((R)-1-(dimethylamino)propan-2-yl)oxy)-7-(naphthalen-1-yl)-5,6,7,8-tetrahydropyrido[3,4-d]pyrimidin-4-yl)piperazin-2-yl)acetonitrile] | > 1000 nM |  |  |
| C (“C”>50% POC) | C=CC(=O)N1CCN(c2nc(O[C@H](C)CN(C)C)nc3c2CCN(c2c(C)ccc4[nH]ncc24)C3)CC1CC#N (stereo partly drawn) [Example 152, 2-[4-[2-[(1R)-2-(dimethylamino)-1-methyl-ethoxy]-7-(5-methyl-1H-indazol-4-yl)-6,8-dihydro-5H-pyrido[3,4-d]pyrimidin-4-yl]-1-prop-2-enoyl-piperazin-2-yl]acetonitrile] |  | 0.1 to 1000 nM |  |
| C (“C”>50% POC) | C=CC(=O)N1CCN(c2nc(OCCCN3C[C@@H]4C[C@H]3CO4)nc3c2CCN(c2cc(O)cc4ccccc24)C3)CC1CC#N (stereo partly drawn) [Example 153, 2-[4-[7-(3-hydroxy-1-naphthyl)-2-[3-[(1S,4S)-2-oxa-5-azabicyclo[2.2.1]heptan-5-yl]propoxy]-6,8-dihydro-5H-pyrido[3,4-d]pyrimidin-4-yl]-1-prop-2-enoyl-piperazin-2-yl]acetonitrile] |  | 0.1 to 1000 nM |  |
| C (“C”>50% POC) | C=CC(=O)N1CCN(c2nc(OCCCN3C[C@@H]4C[C@H]3CO4)nc3c2CCN(c2cccc4ccccc24)C3)CC1CC#N (stereo partly drawn) [Example 154, 2-[4-[7-(1-naphthyl)-2-[3-[(1S,4S)-2-oxa-5-azabicyclo[2.2.1]heptan-5-yl]propoxy]-6,8-dihydro-5H-pyrido[3,4-d]pyrimidin-4-yl]-1-prop-2-enoyl-piperazin-2-yl]acetonitrile] | 0.1 to 1000 nM |  |  |
